Experiment [1] in a line: Antimicrobial activity against Mycobacterium avium subsp. hominissuis ATCC 700898 infected in human THP1 cells in presence of 2% FBS. The format is functional, cell-based. Conditions: ATCC 700898, THP-1.
Experiment [2] is described as follows: Antimicrobial activity against Mycobacterium avium subsp. hominissuis ATCC 700898 infected in human THP1 cells in presence of 10% FBS. The format is functional, cell-based. Conditions: ATCC 700898, THP-1.
A short description of experiment [3]: microbe, parasite or virus in culture. Conditions: Mycobacterium avium, ATCC 700898, 168 h.
Experiment [4] can be described thus: Antimicrobial activity against Mycobacterium avium subsp. hominissuis ATCC 700898 infected in human THP1 cells in presence of 20% FBS. In kind it is functional, cell-based. Conditions: ATCC 700898, THP-1.
Experiment [5] in a line: microbe, parasite or virus in culture. The note with it: Mycobacterium avium, ATCC 700898, 168 h. This is another data set of the same source.
Experiment [6] in a line: microbe, parasite or virus in culture. The note with it: Mycobacterium avium, ATCC 700898.
Experiment [7] concerns Mycobacterium avium. Kind of experiment: Antimicrobial activity against Mycobacterium avium by CLSI method.

Data on one compound can be found in ChEMBL document CHEMBL1255498, “Moxifloxacin pharmacokinetics/pharmacodynamics and optimal dose and susceptibility breakpoint identification for treatment of disseminated Mycobacterium avium infection” (Antimicrob Agents Chemother, 2010).

Molecules are shown by their SMILES. ≈ marks a conversion by molar mass, not a printed value. A value given as a limit tells only on which side of the number the result lay.

A word on the EC50: it is the concentration at which the effect is half-maximal. Turning to `COc1c(N2C[C@@H]3CCCN[C@@H]3C2)c(F)cc2c(=O)c(C(=O)O)cn(C3CC3)c12` [MOXIFLOXACIN], the EC50 in experiment [1] was 8.09 µg/mL; in experiment [2], 5.07 µg/mL; in experiment [3], 8.24 µg/mL (≈ 20.5 µM); in experiment [4], 5.21 µg/mL; in experiment [5], at least 32 µg/mL. In addition, the MIC in experiment [6] and in experiment [7] was 1 µg/mL (≈ 2.49 µM) throughout.
